# Source: patent publication US10464952B2, “Beta-lactamase inhibitors” (priority 2015, dated 2019)
# How the values were obtained:
# [1] = test system: E. cloacae expressing the Class C P99; test: Broth microdilution MIC assay, potentiation of ceftazidime; format: cell-based; conditions: Fixed CAZ 4 μg/mL; CAMHB, 16-20 hours at 37° C.
# Text: (§1) To determine the ability of test compounds to potentiate the inhibition of the growth of bacterial strains that produce beta-lactamase enzymes, classic cell based broth microdilution MIC assays were employed. Six bacteria strains producing beta-lactamase enzymes were used: E. coli expressing the Class A Extended Spectrum Beta-Lactamase (ESBL) CTX-M-15, E. cloacae expressing the Class C P99, K. pneumoniae expressing the Class A carbapenemase KPC-3, P.aeruginosa expressing the Class B carbapenemase VIM-2, K. pneumoniae expressing the class A carbapenemase KPC-2 and the class B carbapenemase VIM-4, and K. pneumoniae producing the Class D carbapenemase OXA-48. The assay was conducted in Cation Adjusted Mueller Hinton Broth (CAMHB, BD #212322, BD Diagnostic Systems, Sparks, Md.). Bacteria strains were grown for 3-5 hours in CAMHB broth. Test compounds were added to a microtiter plate in 2-fold serial dilutions in CAMHB in a final concentration range of 32 μg/mL to 0.015 μg/mL. An overlay of CAMHB containing a Beta-lactam was added to the compounds at a final static concentration of 4 μg/mL. […] In addition to the titration of test compounds the MICs of a panel of control beta-lactams is also tested to ensure the strains are behaving consistently from test to test. Once the test compound and antibiotics are added the plates can be inoculated according to CLSI broth microdilution method. After inoculation, the plates are incubated for 16-20 hours at 37° C., then the Minimal Inhibitory Concentration (MIC) of the test compound is determined visually.
# (§2) Using the methodology described above, examples of the current invention were evaluated for their ability to inhibit the growth of β-lactamase-producing bacteria in the presence of a β-lactam antibiotic.
# (§3) Representative results are shown in Table 3 where A represents an MIC of the fixed β-lactam antibiotic in the presence of >32 μg/mL of a β-lactamase inhibitor of exemplary compounds, B represents the MIC in the presence of between 8 and 32 μg/mL of a β-lactamase inhibitor of exemplary compounds, and C represents the MIC in the presence of ≤4 μg/mL of a β-lactamase inhibitor of exemplary compounds. NT=Not Tested.
# [2] = test system: E. coli expressing the Class A Extended Spectrum Beta-Lactamase (ESBL) CTX-M-15; test: as above; format: cell-based; conditions: Fixed CAZ 4 μg/mL; CAMHB, 16-20 hours at 37° C.
# Text: as §1, §2, §3
# [3] = test system: K. pneumoniae producing the Class D carbapenemase OXA-48; test: Broth microdilution MIC assay, potentiation of meropenem; format: cell-based; conditions: Fixed Mero 4 μg/mL; CAMHB, 16-20 hours at 37° C.
# Text: as §1, §2
# [4] = test system: K. pneumoniae expressing the Class A carbapenemase KPC-3; test: as above; format: cell-based; conditions: Fixed Mero 4 μg/mL; CAMHB, 16-20 hours at 37° C.
# Text: as §1, §2
# OXA-48 = biological target: T1, OXA-48 (Klebsiella pneumoniae, UniProt Q6XEC0); test: β-lactamase enzyme inhibition assay, OXA-48 (nitrocefin substrate); format: biochemical
# T1 construct: made in house; host or cells: E. coli BL21(DE3)
# T1 sequence (Q6XEC0 23-265 limits assumed): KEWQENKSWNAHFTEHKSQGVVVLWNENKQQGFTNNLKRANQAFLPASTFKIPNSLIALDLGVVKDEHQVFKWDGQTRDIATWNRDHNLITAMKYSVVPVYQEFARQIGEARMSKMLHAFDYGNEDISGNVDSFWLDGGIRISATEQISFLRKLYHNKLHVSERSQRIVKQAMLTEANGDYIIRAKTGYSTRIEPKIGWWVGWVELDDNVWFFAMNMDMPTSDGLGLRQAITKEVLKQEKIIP
# Description: (§4) For SHV-5, KPC-2, p99AmpC and OXA-4813-lactamases, E. coli BL21(DE3) bacterial cells carrying expression plasmids (expressed as native untagged proteins) for the individual β-lactamases were grown in 1L of Superbroth (Teknova Inc. Hollister, Calif.) supplemented with 100 μg/ml kanamycin selection and 1×5052 (0.5% glycerol, 0.05% glucose and 0.2% α-lactose) at 35° C. for 18-20 hours. Cells were harvested by centrifugation (4,000 ×g, 4° C., 20 min), re-suspended in 50 ml of 10 mM HEPES pH 7.5 (1/20 of the initial volume). The cells were lysed by sonication (5 pulses of 45 seconds) at 45 Won ice. The lysates were clarified by centrifugation at 10,000 ×g for 40 minutes at 4° C. Samples were diluted 5-fold in 50 mM sodium acetate pH 5.0, stored overnight at 4° C., after which they were centrifuged at 10,000 ×g for 30 minutes to clarify, and filtered through 0.45 μm filters. The samples were loaded onto a 5 ml Capto S sepharose cation exchange column (GE Healthcare) pre-equilibrated with 50 mM sodium acetate pH 5.0. The column was washed with 5 column volumes of 50 mM sodium acetate pH 5.0 to wash out unbound protein and a linear gradient of NaCl (0 to 500 mM) was used to elute the protein (over 16 CV) from the column. Fractions were assayed for β-lactamase activity using Centa (Calbiochem, Gibbstown, N.J.) or Nitrocefin (EMD Millipore chemicals, Darmstadt, Germany) as a reporter β-lactamase substrate for activity in the isolated fractions. Active fractions were pooled, concentrated and further purified by gel filtration chromatography on a Superdex 75 prep grade gel filtration column (GE Healthcare, Piscataway, N.J.) pre -equilibrated in 50 mM Hepes pH 7.5, 150 mM NaCl. Active fractions were pooled, concentrated, and quantitated by BCA protein determination (ThermoScientific, Rockford, Ill.), dialyzed into PBS and frozen at […] in 20% glycerol until use.
# (§5) An equal volume of diluted enzyme stock was added, and the plates were incubated at 37° C. for 15 min. Nitrocefin was used as substrate for p99 AmpC, VIM-2 and OXA-48 and dispensed into each well at a final concentration of 100 μM. Absorbance at 486 nm was immediately monitored for 10 min using a Biotek Powerwave XS2 microplate spectrophotometer using the GEN5 software package (Biotek Instruments, Winooski Vt.). In an analogous fashion, imipenem was used as substrate for KPC-2 and Cefotaxime was used for SHV-5, while changes in absorbance upon hydrolysis of the β-lactam ring were monitored at 300 nm and 260 nm respectively in UV-transparent 96-well microtiter assay plates. Maximum rates of hydrolysis were compared to those in control wells (without inhibitors), and percentages of enzyme inhibition were calculated for each concentration of inhibitor. The concentration of inhibitor needed to reduce the initial rate of hydrolysis of substrate by 50% (IC50) was calculated as the residual activity of β-lactamase at 486 nm using GraFit version 7 kinetics software package (Erithacus Software, Surrey, UK).
# (§6) Using the methodology described above, examples of the current invention were evaluated for their ability to inhibit β-lactamase enzymes from all four Ambler classifications (A through D). […] NT=Not tested.
# KPC-2 = biological target: T2, KPC-2 (Klebsiella pneumoniae, UniProt Q9F663); test: β-lactamase enzyme inhibition assay, KPC-2 (imipenem substrate); format: biochemical
# T2 construct: made in house; host or cells: E. coli BL21(DE3)
# T2 sequence (Q9F663 25-293 limits assumed): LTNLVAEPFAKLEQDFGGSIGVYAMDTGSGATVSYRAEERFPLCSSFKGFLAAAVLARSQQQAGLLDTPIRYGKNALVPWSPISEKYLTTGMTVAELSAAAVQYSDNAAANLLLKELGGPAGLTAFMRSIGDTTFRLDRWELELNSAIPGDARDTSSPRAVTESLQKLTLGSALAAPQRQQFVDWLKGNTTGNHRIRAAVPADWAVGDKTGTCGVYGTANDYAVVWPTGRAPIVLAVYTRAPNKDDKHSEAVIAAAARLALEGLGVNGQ
# Description: as §4, §5, §6
# [5] = biological target: T3, VIM-2 metallo β-lactamase (Pseudomonas aeruginosa, UniProt Q9K2N0); test: β-lactamase enzyme inhibition assay, VIM-2 (nitrocefin substrate); format: biochemical; conditions: 15 min preincubation at 37° C.; nitrocefin 100 μM, 486 nm; read-out: IC50 VIM-2 (Class B)
# T3 construct: made in house; host or cells: E. coli BL21(DE3)
# Description: For VIM-2 metallo β-lactamase, the procedure was identical with the following exceptions, first the protein was not pH adjusted to pH 5 with 50 mM sodium acetate. Second, the chromatography step was changed to a 5 ml Q sepharose anion exchange column pre-equilibrated with 50 mM Hepes pH 7.5, and elution of the protein was achieved by a linear gradient of NaCl (0-600 mM). Finally, the VIM-2 purification required a second run (3rd step) on the Q sepharose anion exchange column to achieve acceptable purity (>90%).
# as §5, §6
# p99 AmpC = biological target: T4, p99 AmpC (Enterobacter cloacae, UniProt P05364); test: β-lactamase enzyme inhibition assay, p99 AmpC (nitrocefin substrate); format: biochemical
# T4 construct: made in house; host or cells: E. coli BL21(DE3)
# T4 sequence (P05364 21-381): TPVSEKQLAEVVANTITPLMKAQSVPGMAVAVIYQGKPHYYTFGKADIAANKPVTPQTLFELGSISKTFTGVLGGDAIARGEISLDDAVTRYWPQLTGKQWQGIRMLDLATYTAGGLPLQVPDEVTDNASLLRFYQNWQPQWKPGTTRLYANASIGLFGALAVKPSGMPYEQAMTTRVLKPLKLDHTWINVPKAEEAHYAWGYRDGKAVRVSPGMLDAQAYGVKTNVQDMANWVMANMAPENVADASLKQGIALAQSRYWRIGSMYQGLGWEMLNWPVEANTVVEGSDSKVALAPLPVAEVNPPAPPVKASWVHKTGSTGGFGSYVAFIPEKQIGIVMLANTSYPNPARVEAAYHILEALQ
# Description: as §4, §5, §6
# SHV-5 = biological target: T5, SHV-5 (Klebsiella pneumoniae, UniProt P0A3M1); test: β-lactamase enzyme inhibition assay, SHV-5 (cefotaxime substrate); format: biochemical
# T5 construct: made in house; host or cells: E. coli BL21(DE3)
# T5 sequence (P0A3M1 22-286): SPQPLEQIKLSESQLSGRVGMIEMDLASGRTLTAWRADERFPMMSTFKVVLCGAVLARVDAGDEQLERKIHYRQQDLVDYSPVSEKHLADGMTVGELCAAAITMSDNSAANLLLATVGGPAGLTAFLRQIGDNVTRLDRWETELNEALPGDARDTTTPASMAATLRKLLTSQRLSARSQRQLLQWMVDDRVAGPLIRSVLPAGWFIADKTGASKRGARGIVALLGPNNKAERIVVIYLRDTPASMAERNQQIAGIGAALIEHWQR
# Description: as §4, §5, §6
# [6] = test system: P.aeruginosa expressing the Class B carbapenemase VIM-2; test: Broth microdilution MIC assay, potentiation of meropenem; format: cell-based; conditions: Fixed Mero 4 μg/mL; CAMHB, 16-20 hours at 37° C.
# Text: as §1, §2, §3
# [7] = test system: K. pneumoniae expressing the class A carbapenemase KPC-2 and the class B carbapenemase VIM-4; test: as above; format: cell-based; conditions: Fixed Mero 4 μg/mL; CAMHB, 16-20 hours at 37° C.
# Text: as §1, §2, §3
smiles,measurement,setting,value
"CC(F)(F)CCC(=O)N[C@H]1Cc2cccc(C(=O)O)c2OB1O [Example 85, (R)-3-(4,4-Difluoro-pentanoylamino)-2-hydroxy-3,4-dihydro-2H -benzo[e][1,2]oxaborinine-8-carboxylic acid]","MIC (μg/mL) of exemplary compounds in presence of fixed β-lactams, E. cl. 144200 p99 AmpC",[1],C (C represents the MIC in the presence of ≤4 μg/mL of a β-lactamase inhibitor)
same,"MIC (μg/mL) of exemplary compounds in presence of fixed β-lactams, E. coli ESBL4 CTX-M-15",[2],C (C represents the MIC in the presence of ≤4 μg/mL of a β-lactamase inhibitor)
same,"MIC (μg/mL) of exemplary compounds in presence of fixed β-lactams, K. P. 11978 OXA-48",[3],C (C represents the MIC in the presence of ≤4 μg/mL of a β-lactamase inhibitor)
same,"MIC (μg/mL) of exemplary compounds in presence of fixed β-lactams, K. P. 156319 KPC-3",[4],C (C represents the MIC in the presence of ≤4 μg/mL of a β-lactamase inhibitor)
same,IC50,OXA-48,1000 to 10000 nM
same,IC50,KPC-2,< 100 nM
same,IC50,[5],1000 to 10000 nM
same,IC50,p99 AmpC,< 100 nM
same,IC50,SHV-5,< 100 nM
same,"MIC (μg/mL) of exemplary compounds in presence of fixed β-lactams, P. aerug. 2775 VIM-2",[6],C (C represents the MIC in the presence of ≤4 μg/mL of a β-lactamase inhibitor)
same,"MIC (μg/mL) of exemplary compounds in presence of fixed β-lactams, K.P. A-1797 KPC-2 VIM-4",[7],B (B represents the MIC in the presence of between 8 and 32 μg/mL of a β-lactamase inhibitor)
